According to patent publication US8026219B2, “Antimicrobial linear peptides” (Universitat de Girona, priority 2006, dated 2011):
Residues, ends and D or L forms follow the SMILES beside them. No end group written: not given here. *: point of attachment. Bz = O=C(c1ccccc1)*

Assays:
[1] = tested on: erythrocytes from fresh human blood; settings: 5% erythrocytes, 1 h at 37° C., relative to 200 μM melittin; for % Haemolysis 50 μM: 50 μM peptide; for % Haemolysis 150 μM: 150 μM peptide; for % Haemolysis 250 μM: 250 μM peptide
Experimental: A description of the methodology used to determine the haemolytic activity is found in Oren et al, Biochemistry, 2000, 39, 6103-6114, and in Raguse et al., J. Am. Chem. Soc., 2002, 124, 12774-12785.
The haemolytic activity of the peptides of the invention was evaluated by determining the release of haemoglobin which is produced on placing in contact a solution of the peptides with a suspension of erythrocytes 5% by volume, from fresh human blood.
The blood was collected aseptically using a Vactainer® K2E system (Belliver, Great Britain) with EDTA and it was stored at 4° C. for a period lower than 2 hours.
The blood was centrifuged at 6000 g for 5 minutes to separate the erythrocytes. There were washed three times with TRIS buffer (10 mM TRIS, 150 mM NaCl, pH 7.2) and they were resuspended in TRIS buffer until obtaining a suspension which contained 10% by volume of erythrocytes.
The peptides were solubilized in TRIS buffer until a final concentration of 100, 300 and 500 μM
The replicas were used for each peptide and concentration.
65 μl of 10% erythrocyte suspension was mixed with 65 μl of the peptide solution in each well of a 96-well plate (Micro-Amp®, Applied Biosystems, USA) (5% by volume of erythrocytes) and the mixture was incubated for 1 h at 37° C. under stirring. In this way, the erythrocyte suspensions were subjected to peptide concentrations of 50, 150 and 250 μM.
Next, the plates were centrifuged at 3500 g during 10 minutes and aliquots were transferred of 80 μl of supernatant to microplates with 100 wells (Bioscreen), which were diluted with 80 μl of milli-Q water.
The degree of haemolysis was determined from the absorbance at 540 nm with a Bioscreen plate reader.
The complete positive haemolysis control was determined in a TRIS buffer solution which contained 200 μM melittin (Sigma-Aldrich, Spain)
The percentage of haemolysis (H) was determined using the following equation: H=100×[Op−Ob)/(Om−Ob)]
Where OP as the optical density measured for a determined peptide concentration, Ob was the optical density of the buffer solution, and Om was the optical density for the positive control with melittin.

Proteinase K [2] = molecular target: T1, Proteinase K (Parengyodontium album, UniProt P06873); test: in vitro; settings: Proteinase K (1 μg/ml), pH 7.6
T1 sequence (P06873 106-384): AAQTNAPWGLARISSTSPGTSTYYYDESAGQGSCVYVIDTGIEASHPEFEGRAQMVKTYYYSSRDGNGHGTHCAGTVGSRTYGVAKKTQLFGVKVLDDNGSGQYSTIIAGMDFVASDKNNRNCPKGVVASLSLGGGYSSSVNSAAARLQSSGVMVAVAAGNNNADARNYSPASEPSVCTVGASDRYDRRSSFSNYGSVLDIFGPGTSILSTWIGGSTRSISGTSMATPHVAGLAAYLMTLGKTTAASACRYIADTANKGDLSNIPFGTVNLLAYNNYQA
Experimental: (§2) The degradation is expressed as the percentage of peptide degraded after a determined time interval calculated from the decrease in the area of the peak of the native peptide by HPLC.
(§3) The stability of the peptides of the invention to degradation by proteases is determined by a peptide digestion test by Proteinase K (Sigma-Aldrich Corporation, Madrid, Spain).
(§4) A solution of 50 μg/ml of the peptide and 1 μg/ml of Proteinase K in 100 mM TRIS buffer at pH 7.6 was used, at ambient temperature.
(§5) The progress of the peptide excision was determined chromatographically at times between 5 and 45 minutes. To do this a reverse phase C18 column was used (Kromasil, 4.6×40 mm; 3.5 μm particle size), and linear gradients from 0.98:0.02 to 0:1 during 7 min performing the detection by absorbance in ultraviolet light at 220 nm.

[3] = tested on: Erwinia amylovora PMV6076; test: Minimum inhibitory concentration (MIC), microbial growth by optical density; format: cell-based; settings: 48 h incubation at 25° C., TSB medium
Experimental: (§1) Each experiment was performed twice.

[4] = tested on: Pseudomonas syringae EPS94; test: as above; format: cell-based; settings: 48 h incubation at 25° C., TSB medium
Experimental: as §1

[5] = tested on: Xanthomonas vesicatori 2133-2; test: as above; settings: 48 h incubation at 25° C., TSB medium
Experimental: All the bacteria were stored at a temperature of −80° C. in Luria-Bertani (LB) medium supplemented with 20% glycerine in volume/volume.
In all cases they were resuspended in sterile water to obtain a suspension adjusted to an absorbance of 0.2 to 60 nm, which approximately corresponds to 10^8 colony forming units.
To determine the minimum inhibitory concentration (MIC), the peptides were solubilized in milli-Q sterile water until a final concentration of 1000 μM and they were filtered through a 0.22 μm pore size filter.
Dilutions of the peptides of the invention were made to obtained solutions at the concentrations of 750, 500, 250, 200, 150, 125, 100, 75, 50 and 25 μM.
20 μl of each dilution were mixed with 20 μl of the suspension of the corresponding bacterial indicator, and 160 μl of the TSB (Trypticase Soy Broth) liquid medium until a total volume of 200 μl in each well of a microplate.
Two replicas were carried out for each strain, concentration and peptide under study.
The positive controls contained water instead of peptide, and the negative controls contained the peptides without the bacterial suspension.
The microbial growth was determined automatically by optical density at 600 nm using the Microbiology Analyser Bioscreen C (Labsystems)
The microplates were incubated at 25° C. for 48 hours with stirring for 20 seconds before measuring the absorbance every hour. Each experiment was performed twice.

Proteinase K [6] = molecular target: T1, Proteinase K; settings: 45 minutes
Experimental: as §2, §3, §4, §5

Molecule | % Haemolysis 50 μM [1] [%] | % Haemolysis 150 μM [1] [%] | % Haemolysis 250 μM [1] [%] | metabolised at 0.75 h, 50 μg/ml (Proteinase K [2]) [%] | range of concentrations including the MIC, E. amylovora [3] [µM] | range of concentrations including the MIC, P. syringae [4] [µM] | range of concentrations including the MIC, X. vesicatoria [5] [µM] | stability to degradation by proteases relative to the peptide of the Comparative example (Proteinase K [6])
CC[C@H](C)[C@H](NC(=O)[C@H](CCCCN)NC(=O)[C@H](CCCCN)NC(=O)[C@H](Cc1ccccc1)NC(=O)[C@H](CC(C)C)NC(=O)[C@H](CCCCN)NC(=O)[C@H](CCCCN)NC(C)=O)C(=O)N[C@@H](CC(C)C)C(=O)N[C@@H](CCCCN)C(=O)N[C@@H](Cc1ccccc1)C(=O)N[C@@H](CC(C)C)C(N)=O [BP077] | 6 | 40 | 81 | 84 | 5 to 7.5 | 5 to 7.5 | <2.5 | 
CC[C@H](C)[C@H](NC(=O)[C@H](CCCCN)NC(=O)[C@H](CCCCN)NC(=O)[C@H](Cc1ccccc1)NC(=O)[C@H](CC(C)C)NC(=O)[C@H](CCCCN)NC(=O)[C@@H](N)CCCCN)C(=O)N[C@@H](CC(C)C)C(=O)N[C@@H](CCCCN)C(=O)N[C@@H](Cc1ccccc1)C(=O)N[C@@H](CC(C)C)C(N)=O [BP076] | 3 | 34 | 65 | 49 | 2.5 to 5 | 2.5 to 5 | 2.5 to 5 | two times more stable
CC[C@H](C)[C@H](NC(=O)[C@H](CCCCN)NC(=O)[C@H](CCCCN)NC(=O)[C@H](Cc1ccccc1)NC(=O)[C@H](CC(C)C)NC(=O)[C@H](CCCCN)NC(=O)[C@@H](N)Cc1c[nH]c2ccccc12)C(=O)N[C@@H](CC(C)C)C(=O)N[C@@H](CCCCN)C(=O)N[C@@H](Cc1ccc(O)cc1)C(=O)N[C@@H](CC(C)C)C(N)=O [BP020] | 78 | 77 | 72 | 85 | 2.5 to 5 | 2.5 to 5 | 2.5 to 5 | 
CC[C@H](C)[C@H](NC(=O)[C@H](CCCCN)NC(=O)[C@H](CCCCN)NC(=O)[C@H](Cc1ccccc1)NC(=O)[C@H](CC(C)C)NC(=O)[C@H](CCCCN)NC(=O)[C@H](Cc1c[nH]c2ccccc12)NC(=O)c1ccccc1)C(=O)N[C@@H](CC(C)C)C(=O)N[C@@H](CCCCN)C(=O)N[C@H](C(=O)N[C@@H](CC(C)C)C(N)=O)C(C)C [BP010] (Bz-WKLFKKILKVL-NH2) | 77 | 77 | 76 | 100 | >7.5 | >7.5 | <2.5 | 
LKLFKKILKVL-NH2 [BP033] | 4 | 38 | 68 | 100 | 5 to 7.5 | 5 to 7.5 | >7.5 | 
WKLFKKILKFL-NH2 [BP019] | 57 | 94 | 100 | 87 | 5 to 7.5 | 5 to 7.5 | 2.5 to 5 | 
CC[C@H](C)[C@H](NC(=O)[C@H](CCCCN)NC(=O)[C@H](CCCCN)NC(=O)[C@H](Cc1ccccc1)NC(=O)[C@H](CC(C)C)NC(=O)[C@H](CCCCN)NC(=O)[C@H](CCCCN)NS(=O)(=O)c1ccc(C)cc1)C(=O)N[C@@H](CC(C)C)C(=O)N[C@@H](CCCCN)C(=O)N[C@@H](CCCCN)C(=O)N[C@@H](CC(C)C)C(N)=O [BP125] | 2 | 8 | 23 | 67 | >7.5 | 2.5 to 5 | 2.5 to 5 | 
CC[C@H](C)[C@H](NC(=O)[C@H](CCCCN)NC(=O)[C@H](CCCCN)NC(=O)[C@H](Cc1ccccc1)NC(=O)[C@H](CC(C)C)NC(=O)[C@H](CCCCN)NC(=O)[C@H](CCCCN)NC(=O)c1ccccc1)C(=O)N[C@@H](CC(C)C)C(=O)N[C@@H](CCCCN)C(=O)N[C@@H](CCCCN)C(=O)N[C@@H](CC(C)C)C(N)=O [BP126] | 2 | 14 | 24 | 53 | 5 to 7.5 | 2.5 to 5 | 2.5 to 5 | two times more stable
CC[C@H](C)[C@H](NC(=O)[C@H](CCCCN)NC(=O)[C@H](CCCCN)NC(=O)[C@H](Cc1ccccc1)NC(=O)[C@H](CC(C)C)NC(=O)[C@H](CCCCN)NC(=O)[C@@H](N)CCCCN)C(=O)N[C@@H](CC(C)C)C(=O)N[C@@H](CCCCN)C(=O)N[C@H](C(=O)N[C@@H](CC(C)C)C(N)=O)C(C)C [BP015] | 0 | 16 | 45 | 100 | 5 to 7.5 | 2.5 to 5 | >7.5 | 
